{"source": "patent US20260055110A1", "about": "(Azura Ophthalmics Ltd., priority 2021, published 2026)", "key": {"[1]": {"tested_on": "psoriasis, alopecia, uveitis", "settings": "murine models; Mesa 2010, Falto-Aizpurua et al 2014, Lin et al 2021; cited from earlier work"}, "[2]": {"tested_on": "psoriasis, alopecia, dermatitis, dry eye disease", "settings": "humans and/or murine models; literature; cited from earlier work"}, "alopecia": {"tested_on": "alopecia", "settings": "humans and murine models; NCT02974868; cited from earlier work"}, "[3]": {"tested_on": "keratoconjunctivitis and dry eye disease", "settings": "humans and/or dogs; Kravetz de Oliveira 2019; cited from earlier work"}, "Rabbit Cornea Esterase": {"tested_on": "Rabbit Cornea Esterase", "experiment": "Rabbit Cornea Homogenate Stability Assay (Rabbit Cornea Esterase Assay)", "format": "in vitro ADME", "settings": "Table 13, rabbit breed not given", "experimental": "Example 1: Rabbit Cornea Homogenate Stability Assay […]\nThree to four rabbit corneas (e.g., New Zealand Whites (NZW) or Dutch Belted (DB)) of approx. 50 mg each were sliced and scraped with a scalpel and tweezers until reduced to small (1-3 mm), thin pieces. These were transferred into a glass vial containing approximately 2 mL of cold DPBS pH 7.4 buffer.\nSample was cooled intermittently on ice and shear homogenized for 3 minutes, then centrifuged for 3 min at 13,000 g. The supernatant was pipetted off into a vial, and total protein concentration determined at 280 nm. Sample was stored at −78° C.\n10 mM Compound DMSO stocks were diluted to 10 μM in a glass vial: 10 μL of 10 mM Compound stock was added to 9,990 μl 50 mM DPBS, pH 7.4 buffer. Esterase homogenate was diluted to 300 ng/μl and 900 ng/μL in DPBS.\nA heater shaker was set to 37° C. Into a suitable 96 well plate (Run Plate), 70 μL of 300 or 900 ng/μl esterase homogenate was pipetted into two rows as compounds were analyzed in duplicate (2 min, 5 min, 10 min, 20 min and 45 min). The plate was sealed and then warmed at 37° C. for 5 min.\nTwo 96 deep-well plates were put on ice (Kill Plates). To these, 990 μL of 50:50 MeCN—H2O were added to required rows, labelled 0 min 2 min, 5 min, 10 min, 20 min and 45 min. The plates were covered to minimize evaporation.\nTo both rows of the Run Plate, 70 μL of 10 μM compound solution was added. At the appropriate time point, 10 μL of the assay mixture was added to the matching kill plate well containing 990 μL of 50:50 cold MeCN—H2O. Samples were analyzed as soon as practicable by UPLC-MS (Waters Xevo TQ-S).\nA heater shaker was set to 37° C. Into a suitable 96 well plate (Run Plate), 80 μL of 300 or 900 ng/μL esterase homogenate was pipetted into two rows as compounds were analyzed in duplicate (2 min, 5 min, 10 min, 20 min and 45 min). The plate was sealed and then warmed at 37° C. for 5 min.\nTwo 96 shallow-well plates were placed on ice (Kill Plates). To these, 180 μL of 60:40 MeCN-H2O+0.1% acetic acid are added to required rows. The plates were sealed to minimize evaporation.\nTo both rows of the Run Plate, 80 μL of 10 μM compound solution was added. At the appropriate time point, 20 μL of the assay mixture was added to the matching kill plate well containing 180 μL of 60:40 cold MeCN-H2O+0.1% acetic acid. For lipoic acid analysis, samples were analyzed as soon as practicable by LCMS (Waters Xevo TQ-S). For parent conjugate and parent analysis the samples are diluted further 1 in 10: 20 μL supernatant is added to 180 μL of 50:50 MeCN—H2O."}, "[4]": {"biological_target": "T1, glucocorticoid receptor (GR) (Homo sapiens, UniProt P04150)", "T1 construct": "by mixing 1 mg of IM9 cytosol; host or cells: IM9 human lymphoblast cell cytosol", "T1 sequence (P04150 1-777)": "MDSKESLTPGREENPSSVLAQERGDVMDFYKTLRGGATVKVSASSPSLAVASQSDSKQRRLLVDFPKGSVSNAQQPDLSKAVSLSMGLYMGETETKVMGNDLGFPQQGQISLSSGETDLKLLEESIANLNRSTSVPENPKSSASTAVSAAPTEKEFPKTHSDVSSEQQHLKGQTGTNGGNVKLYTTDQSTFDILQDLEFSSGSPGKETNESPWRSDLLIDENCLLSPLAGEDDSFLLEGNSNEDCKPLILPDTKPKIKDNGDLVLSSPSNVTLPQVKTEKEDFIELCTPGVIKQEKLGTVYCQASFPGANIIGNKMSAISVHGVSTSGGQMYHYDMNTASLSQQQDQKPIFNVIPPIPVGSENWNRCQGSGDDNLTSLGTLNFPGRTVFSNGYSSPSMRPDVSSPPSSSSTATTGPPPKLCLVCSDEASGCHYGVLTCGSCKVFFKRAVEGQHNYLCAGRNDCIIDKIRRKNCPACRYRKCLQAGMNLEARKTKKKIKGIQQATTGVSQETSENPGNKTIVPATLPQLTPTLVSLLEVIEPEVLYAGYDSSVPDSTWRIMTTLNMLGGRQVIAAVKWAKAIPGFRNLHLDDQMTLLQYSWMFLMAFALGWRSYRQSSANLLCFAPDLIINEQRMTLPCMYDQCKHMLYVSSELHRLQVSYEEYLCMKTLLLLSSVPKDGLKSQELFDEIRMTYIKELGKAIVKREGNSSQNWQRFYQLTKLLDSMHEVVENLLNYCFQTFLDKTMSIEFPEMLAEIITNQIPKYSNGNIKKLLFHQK", "experiment": "Glucocorticoid Binding Assay, GR (h) (agonist radioligand)", "settings": "IM9 cytosol, 3H-dexamethasone competitive binding", "experimental": "GR (h) (agonist radioligand) assay performed by Eurofins Cerep, France using a method similar to the one described hereinbelow.\nThe human lymphoblast cell line IM9 is used as a source of the soluble glucocorticoid receptor (GR). The cells are grown to densities of 1 to 10×10^5 cells per milliliter in RPMI 1640 media containing 10% fetal bovine serum, penicillin (100 U/ml), streptomycin (100 μg/ml), and 2 mM L-glutamine at […] and 7% CO2 in a humidified incubator. The IM9 cells are harvested from the media by centrifugation for 10 minutes at 1500 g. Cells are washed in 12 volumes of Dulbecco's phosphate-buffered saline (PBS) and re-pelleted. Washed cells are resuspended in five to six volumes (per volume of packed cells) of homogenization buffer (10 mM TES, 10 mM sodium molybdate, 1 mM EDTA, pH 7.4, 20 mM 2-mercaptoethanol, and 10% glycerol), and the cells are broken by nitrogen cavitation using 2×15 minutes at 600 to 750 psi nitrogen in the N2 cavitator at 0° C. Cell disruption is confirmed by Hoffman contrast microscopy using a Nikon Diaphot. The broken cell preparation is then centrifuged at 27,000 g for 15 minutes, and the resultant supernatant was centrifuged at 103,000 g for 60 minutes at 4° C. The amount of protein in the supernatant fraction is determined using a BCA assay kit with a bovine serum albumin standard. Aliquots of the supernatant fraction are snap frozen in a dry ice-acetone bath and stored at −70° C. Competitive binding assays are done in duplicate in homogenization buffer (total volume of […]) by mixing 1 mg of IM9 cytosol, 0.05/ρCi (3 nM) of ^3H-dexamethasone, and Compounds described herein (10^−5 to 10^−11 M). After incubation at 0° C. for 16 to 18 hours, the assay is stopped by the addition of […] of a charcoal-dextran mixture (2% activated charcoal, 0.5% dextran in 10 mM Tris, 1 mM EDTA, pH 7.4). The assay mixture is further incubated at 0° C. for 10 minutes before being centrifuged for 5 minutes at 8200 g. A 100-μl sample of the supernatant (protein-bound steroid fraction) is assayed for radioactivity by liquid scintillation spectrometry, and the IC50 values were determined graphically.\nIn some instances, an ester is active in the glucocorticoid binding assay. In some instances, an ester retains activity, such as when attached to a keratolytic agent (or a radical thereof), in the glucocorticoid binding assay."}, "uveitis": {"tested_on": "uveitis", "settings": "humans and/or murine models; Gangaputra 2009; cited from earlier work"}, "dry eye": {"tested_on": "dry eye", "settings": "murine model; Sadrai et al 2012; cited from earlier work"}, "[5]": {"tested_on": "dermatitis, keratoconjunctivitis, dry eye disease", "settings": "humans and/or dogs; literature; cited from earlier work"}}}
{"smiles": "N#CC[C@H](C1CCCC1)n1cc(-c2ncnc3[nH]ccc23)cn1", "note": "[Ruxolitinib, (3R)-3-Cyclopentyl-3-[4-(7H-pyrrolo[2,3-d]pyrimidin-4-yl)pyrazol-1-yl]propanenitrile]", "values": [{"measurement": "objective signs of psoriasis, alopecia and uveitis", "setting": "[1]", "value": "improvements in objective signs"}]}
{"smiles": "C[C@@H]1CCN(C(=O)CC#N)C[C@@H]1N(C)c1ncnc2[nH]ccc12", "note": "[Tofacitinib, 3-[(3R,4R)-4-Methyl-3-[methyl(7H-pyrrolo[2,3-d]pyrimidin-4-yl)amino]piperidin-1-yl]-3-oxopropanenitrile]", "values": [{"measurement": "objective signs of psoriasis, alopecia, dermatitis and dry eye disease", "setting": "[2]", "value": "improvements in objective signs"}]}
{"smiles": "C=CC(=O)N1C[C@H](Nc2ncnc3[nH]ccc23)CC[C@@H]1C", "note": "[Ritlecitinib, 1-((2S,5R)-5-((7H-pyrrolo[2,3-d]pyrimidin-4-yl)amino)-2-methylpiperidin-1-yl)prop-2-en-1-one]", "values": [{"measurement": "objective signs of alopecia", "setting": "alopecia", "value": "improvements in objective signs"}]}
{"smiles": "C=CC[C@H]1/C=C(/C)C[C@@H](C)C[C@@H](OC)[C@@H]2O[C@@](O)(C(=O)C(=O)N3CCCCC3C(=O)O[C@H](/C(C)=C/[C@@H]3CC[C@@H](O)[C@H](OC)C3)[C@H](C)[C@@H](O)CC1=O)[C@H](C)C[C@@H]2OC", "note": "(single isomer, unassigned; (-)) [Tacrolimus]", "values": [{"measurement": "objective signs of keratoconjunctivitis and dry eye disease", "setting": "[3]", "value": "improvements in objective signs"}]}
{"smiles": "C[C@@H]1C[C@H]2[C@@H]3C[C@H](F)C4=CC(=O)C=C[C@]4(C)[C@@]3(F)[C@@H](O)C[C@]2(C)[C@@]1(OC(=O)CCCC[C@@H]1CCSS1)C(=O)OCC#N", "note": "[Compound 73A, Cyanomethyl (6S,8S,9R,10S,11S,13S,14S,16R,17R)-17-((5-((R)-1,2-dithiolan-3-yl)pentanoyl)oxy)-6,9-difluoro-11-hydroxy-10,13,16-trimethyl-3-oxo-6,7,8,9,10,11,12,13,14,15,16,17-dodecahydro-3H-cyclopenta[a]phenanthrene-17-carboxylate]", "values": [{"measurement": "Esterase (0.15 mg/mL) % parent released after 45 min", "setting": "Rabbit Cornea Esterase; rabbit cornea homogenate 0.15 mg/mL", "value": "A (<25%)"}, {"measurement": "Esterase (0.45 mg/mL) % parent released after 45 min", "setting": "Rabbit Cornea Esterase; rabbit cornea homogenate 0.45 mg/mL", "value": "A (<25%)"}, {"measurement": "EC50", "setting": "[4]", "value": "> 100", "unit": "nM"}]}
{"smiles": "CN(Cc1cnc2nc(N)nc(N)c2n1)c1ccc(C(=O)N[C@@H](CCC(=O)O)C(=O)O)cc1", "note": "[methotrexate, (2S)-2-[(4-{[(2,4-Diaminopteridin-6-yl)methyl](methyl)amino}benzoyl)amino]pentanedioic acid]", "values": [{"measurement": "objective signs of uveitis", "setting": "uveitis", "value": "improvements in objective signs"}]}
{"smiles": "COc1ccc([C@]2(C#N)CC[C@@H](C(=O)O)CC2)cc1OC1CCCC1", "note": "[Cilomilast, cis-4-cyano-4-[3-(cyclopentyloxy)-4-methoxyphenyl]cyclohexanecarboxylic acid]", "values": [{"measurement": "objective signs of dry eye", "setting": "dry eye", "value": "improvements in objective signs"}]}
{"smiles": "CNS(=O)(=O)C[C@H]1CC[C@H](N(C)c2ncnc3[nH]ccc23)CC1", "note": "[Oclacitinib, N-methyl{trans-4-[methyl(7H-pyrrolo[2,3-d]pyrimidin-4-yl)amino]cyclohexyl}methanesulfonamide]", "values": [{"measurement": "objective signs of dermatitis, keratoconjunctivitis and dry eye disease", "setting": "[5]", "value": "improvements in objective signs"}]}
{"smiles": "C[C@@H]1C[C@H]2[C@@H]3C[C@H](F)C4=CC(=O)C=C[C@]4(C)[C@@]3(F)[C@@H](O)C[C@]2(C)[C@@]1(OC(=O)CCCC[C@@H]1CCSS1)C(=O)O", "note": "[Chemical Synthesis Example 68, (6S,8S,9R,10S,11S,13S,14S,16R,17R)-17-((5-((R)-1,2-Dithiolan-3-yl)pentanoyl)oxy)-6,9-difluoro-11-hydroxy-10,13,16-trimethyl-3-oxo-6,7,8,9,10,11,12,13,14,15,16,17-dodecahydro-3H-cyclopenta[a]phenanthrene-17-carboxylic acid]", "values": [{"measurement": "EC50", "setting": "[4]", "value": 21, "unit": "nM"}]}
